Data on 20 molecules can be found in PubChem BioAssay AID248 (DTP/NCI, 2004).

Where “and” joins values, the source holds several entries; their conditions need not be identical. Equal entries are not always repeated. Toxic doses and inconclusive results are not listed.

The test system of the assay is L1210 leukemia ip in BDF1 mice, survival T/C. As to the kind of experiment: NCI In Vivo Anticancer Drug Screen. Data for tumor model L1210 Leukemia (intraperitoneal) in B6D2F1 (BDF1) mice. The note with it: endpoint: mean survival time, higher = longer survival. In a few lines:
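Mice bearing the transplanted tumor received compound or vehicle. Survival of the treated group was divided by that of the vehicle-treated control group to give the ratio.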

[1] abbreviates: dose: 100.0 mg/kg/injection, schedule: Q01DX009 (ip), vehicle: Klucel (hydroxypropylcellulose) (HPC).
[2] abbreviates: dose: 100.0 mg/kg/injection, schedule: Q01DX009 (ip), vehicle: saline with Tween-80.
The mark [3] stands for this setting: dose: 200.0 mg/kg/injection, schedule: Q01DX009 (ip), vehicle: saline with Tween-80.
Where [4] appears, read: dose: 50.0 mg/kg/injection, schedule: Q01DX001 (ip), vehicle: saline.
Setting [5] is: dose: 100.0 mg/kg/injection, schedule: Q01DX001 (ip), vehicle: saline.
[6] abbreviates: dose: 200.0 mg/kg/injection, schedule: Q01DX001 (ip), vehicle: saline.
Setting [7] is: dose: 400.0 mg/kg/injection, schedule: Q01DX001 (ip), vehicle: saline.
The mark [8] stands for this setting: dose: 100.0 mg/kg/injection, schedule: Q04DX003 (ip), vehicle: saline with Tween-80.
Where [9] appears, read: dose: 200.0 mg/kg/injection, schedule: Q04DX003 (ip), vehicle: saline with Tween-80.
Where [10] appears, read: dose: 400.0 mg/kg/injection, schedule: Q04DX003 (ip), vehicle: saline with Tween-80.

As for `CCN=C(NCC)c1ccc(NC(=O)c2ccc(C(=O)Nc3ccc(C(=NCC)NCC)cc3)cc2)cc1`, the T/C is 98 % of control (dose: 7.5 mg/kg/injection, schedule: Q01DX010 (oral), vehicle: saline); 204 % of control (dose: 7.5 mg/kg/injection, schedule: Q01DX Z (ip), vehicle: saline); 95 % of control (dose: 15.0 mg/kg/injection, schedule: Q01DX010 (oral), vehicle: saline); 106 % of control and 109 % of control (dose: 15.0 mg/kg/injection, schedule: Q01DX Z (ip), vehicle: saline); 91 % of control (dose: 30.0 mg/kg/injection, schedule: Q01DX010 (oral), vehicle: saline); 98 % of control (dose: 125.0 mg/kg/injection, schedule: Q01DX Z (oral), vehicle: saline). For the same molecule, the T/C runs as follows: (dose: 125.0 mg/kg/injection, schedule: Q## X010 (oral), vehicle: saline) 108 % of control; (dose: 250.0 mg/kg/injection, schedule: Q01DX Z (oral), vehicle: saline) 96 % of control; (dose: 250.0 mg/kg/injection, schedule: Q## X010 (oral), vehicle: saline) 123 % of control; (dose: 500.0 mg/kg/injection, schedule: Q01DX Z (oral), vehicle: saline) 109 % of control.
`CCN(CC)CCOc1ccccc1-c1nc2ccccc2s1`: the T/C reads like this: (dose: 25.0 mg/kg/injection, schedule: Q01DX009 (ip), vehicle: Klucel (hydroxypropylcellulose) (HPC)) 104 % of control; (dose: 50.0 mg/kg/injection, schedule: Q01DX009 (ip), vehicle: Klucel (hydroxypropylcellulose) (HPC)) 98 % of control; under setting [1], 96 % of control and 108 % of control.
Regarding `CCCCCCCCOC(=O)CC`, the T/C (dose: 100.0 mg/kg/injection, schedule: Q04DX002 (ip), vehicle: saline) is 111 % of control; the T/C (dose: 200.0 mg/kg/injection, schedule: Q04DX002 (ip), vehicle: saline) was 107 % of control; the T/C (dose: 400.0 mg/kg/injection, schedule: Q04DX002 (ip), vehicle: saline) is 100 % of control.
Take `C[n+]1ccccc1/C=C/c1ccc(O)c2ccccc12`: the T/C was 97 % of control (dose: 15.0 mg/kg/injection, schedule: Q01DX001 (ip), vehicle: saline); 91 % of control (dose: 30.0 mg/kg/injection, schedule: Q01DX001 (ip), vehicle: saline); 103 % of control (dose: 60.0 mg/kg/injection, schedule: Q01DX001 (ip), vehicle: saline); 103 % of control (dose: 75.0 mg/kg/injection, schedule: Q01DX001 (ip), vehicle: saline).
For `CS(=O)(=O)C(=Cc1ccccc1Cl)S(C)(=O)=O`, the T/C is 92 % of control under setting [2]; 100 % of control under setting [3]; 101 % of control (dose: 400.0 mg/kg/injection, schedule: Q01DX009 (ip), vehicle: saline with Tween-80).
For `CCOC(=O)C(C)N(c1ccccc1)S(=O)(=O)c1ccc(C)cc1` (stereo not given), the T/C (dose: 100.0 mg/kg/injection, schedule: Q01DX001 (ip), vehicle: carboxymethylcellulose (CMC)) is 103 % of control; the T/C (dose: 200.0 mg/kg/injection, schedule: Q01DX001 (ip), vehicle: carboxymethylcellulose (CMC)) is 110 % of control; the T/C (dose: 400.0 mg/kg/injection, schedule: Q01DX001 (ip), vehicle: carboxymethylcellulose (CMC)) was 113 % of control.
As to `O=C(O)C(O)C(O)C(O)C(O)CO.O=C(O)C(O)C(O)C(O)C(O)CO.O=C(O)C(O)C(O)C(O)C(O)CO.[Ga]` (stereo not given), the T/C under setting [4] is 101 % of control, the T/C under setting [5] was 103 % of control, the T/C under setting [6] is 112 % of control and the T/C under setting [7] is 100 % of control.
`NS(=O)(=O)c1ccc(N=Nc2ccc(O)c3ncccc23)cc1`: the T/C is 101 % of control under setting [5], 98 % of control under setting [6] and 98 % of control under setting [7].
Turning to `O=CNC(Cc1ccccc1)Cc1ccccc1`, the T/C reads like this: (dose: 5.0 mg/kg/injection, schedule: Q01DX009 (ip), vehicle: Klucel (hydroxypropylcellulose) (HPC)) 98 % of control; (dose: 5.0 mg/kg/injection, schedule: Q04DX003 (ip), vehicle: Klucel (hydroxypropylcellulose) (HPC)) 103 % of control; (dose: 10.0 mg/kg/injection, schedule: Q01DX009 (ip), vehicle: Klucel (hydroxypropylcellulose) (HPC)) 102 % of control; (dose: 10.0 mg/kg/injection, schedule: Q04DX003 (ip), vehicle: Klucel (hydroxypropylcellulose) (HPC)) 103 % of control; (dose: 20.0 mg/kg/injection, schedule: Q01DX009 (ip), vehicle: Klucel (hydroxypropylcellulose) (HPC)) 102 % of control; (dose: 20.0 mg/kg/injection, schedule: Q04DX003 (ip), vehicle: Klucel (hydroxypropylcellulose) (HPC)) 102 % of control and 107 % of control.
As to `CCCCCCNP(=O)(Oc1ccccc1)Oc1ccccc1`, the T/C (dose: 100.0 mg/kg/injection, schedule: Q04DX003 (ip), vehicle: Klucel (hydroxypropylcellulose) (HPC)) is 97 % of control; the T/C (dose: 200.0 mg/kg/injection, schedule: Q04DX003 (ip), vehicle: Klucel (hydroxypropylcellulose) (HPC)) was 97 % of control; the T/C (dose: 400.0 mg/kg/injection, schedule: Q04DX003 (ip), vehicle: Klucel (hydroxypropylcellulose) (HPC)) was 105 % of control.
As to `CN1CCC(O)(c2ccccc2)C(/C(=N/O)c2ccccc2)C1` (stereo not given), the T/C (dose: 100.0 mg/kg/injection, schedule: Q04DX003 (ip), vehicle: saline) is 97 % of control and the T/C (dose: 200.0 mg/kg/injection, schedule: Q04DX003 (ip), vehicle: saline) was 90 % of control.
Regarding `COc1cc(/C=N/NC(=O)CNC(=O)c2ccc(Cl)cc2Cl)ccc1O`, the T/C by setting is: (dose: 50.0 mg/kg/injection, schedule: Q01DX009 (ip), vehicle: saline with Tween-80) 91 % of control; under setting [2], 86 % of control; under setting [3], 88 % of control.
Take `N/N=C\C(=N/N)C(O)C(O)C(O)CO` (stereo not given): the T/C (dose: 25.0 mg/kg/injection, schedule: Q01DX001 (ip), vehicle: saline with Tween-80) was 93 % of control; the T/C (dose: 50.0 mg/kg/injection, schedule: Q01DX001 (ip), vehicle: saline with Tween-80) was 90 % of control; the T/C (dose: 100.0 mg/kg/injection, schedule: Q01DX001 (ip), vehicle: saline with Tween-80) is 87 % of control.
On to `C1CCC2[N-]CC3CCCCC3[N-]CC3CCCCC3[N-]CC3CCCCC3[N-]CC2C1.[Cl][Fe]([Cl])([Cl])[Cl].[Fe+6]` (stereo not given), for which the T/C reads like this: (dose: 12.5 mg/kg/injection, schedule: Q04DX002 (ip), vehicle: Klucel (hydroxypropylcellulose) (HPC)) 102 % of control; (dose: 25.0 mg/kg/injection, schedule: Q04DX002 (ip), vehicle: Klucel (hydroxypropylcellulose) (HPC)) 102 % of control; (dose: 50.0 mg/kg/injection, schedule: Q04DX002 (ip), vehicle: Klucel (hydroxypropylcellulose) (HPC)) 94 % of control.
With `CCN(CC)CCOC(=O)c1ccc(N=C=S)cc1`, the T/C (dose: 12.5 mg/kg/injection, schedule: Q01DX009 (ip), vehicle: saline) was 102 % of control; the T/C (dose: 25.0 mg/kg/injection, schedule: Q01DX009 (ip), vehicle: saline) was 100 % of control; the T/C (dose: 50.0 mg/kg/injection, schedule: Q01DX009 (ip), vehicle: saline) is 96 % of control.
Turning to `CC1CC(C)(C)N=C(C(Cc2ccc(Br)cc2)c2ccccc2)O1` (stereo not given), the T/C is, setting by setting: under setting [8], 97 % of control; under setting [9], 92 % of control; under setting [10], 95 % of control.
`COc1ccc(C(=O)/C=C2\C(=O)Nc3ccc(Br)cc32)cc1`: the T/C (dose: 100.0 mg/kg/injection, schedule: Q04DX002 (ip), vehicle: Klucel (hydroxypropylcellulose) (HPC)) is 107 % of control; the T/C (dose: 200.0 mg/kg/injection, schedule: Q04DX002 (ip), vehicle: Klucel (hydroxypropylcellulose) (HPC)) was 100 % of control; the T/C (dose: 400.0 mg/kg/injection, schedule: Q04DX002 (ip), vehicle: Klucel (hydroxypropylcellulose) (HPC)) was 93 % of control.
As to `COc1ccc(CC2C(=O)OC(=O)C2Cc2ccc(OC)c(OC)c2)cc1OC` (stereo not given), the T/C reads like this: under setting [8], 91 % of control; under setting [9], 104 % of control; under setting [10], 94 % of control.
`O=[N+]([O-])c1ccc(S(=O)NOCc2ccccc2)cc1` (stereo not given): the T/C under setting [1] was 96 % of control; the T/C (dose: 200.0 mg/kg/injection, schedule: Q01DX009 (ip), vehicle: Klucel (hydroxypropylcellulose) (HPC)) was 94 % of control; the T/C (dose: 400.0 mg/kg/injection, schedule: Q01DX009 (ip), vehicle: Klucel (hydroxypropylcellulose) (HPC)) is 91 % of control.
`ON(C(=Nc1ccccc1)c1ccccc1)c1ccccc1`: the T/C is, setting by setting: under setting [4], 102 % of control; under setting [5], 101 % of control.
